In US20260001928A1 (CORTERIA PHARMACEUTICALS, priority 2022, published 2026):
*1 amine or outer side, *2 acyl side, *3 side chain or, on linkers, in order; H or OH if unused. Where a SMILES comes first, the peptide text is derived from it. Side-chain parts run from the residue outwards. [ ]: non-standard residue; d: D form. The star is where a group is joined. C20 diacid = O=C(O)CCCCCCCCCCCCCCCCCCC(=O)*; C16 diacid = O=C(O)CCCCCCCCCCCCCCC(=O)*; γGlu = O=C(O)[C@H](CCC(=O)[*:2])N[*:1]; NMeI = CC[C@H](C)[C@H](NC)C(=O)O; Api = NC1(C(=O)O)CCNCC1; Abu = CC[C@H](N)C(=O)O; Hexanoyl = CCCCCC(=O)*; Aib = CC(C)(N)C(=O)O

Legend:
[1] = target: T1, human CRF2a receptor (Homo sapiens, UniProt Q13324); test: Activity at human CRF2a receptor, cAMP functional assay in TeloHEAC cells; assay type: cell-based; settings: TeloHEAC cells stably expressing human CRF2a receptor, relative to urocortin 2 (100 nM = 100%)
T1 construct: expressed in transfected cells; host or cells: TeloHEAC cells
T1 sequence (Q13324 1-411): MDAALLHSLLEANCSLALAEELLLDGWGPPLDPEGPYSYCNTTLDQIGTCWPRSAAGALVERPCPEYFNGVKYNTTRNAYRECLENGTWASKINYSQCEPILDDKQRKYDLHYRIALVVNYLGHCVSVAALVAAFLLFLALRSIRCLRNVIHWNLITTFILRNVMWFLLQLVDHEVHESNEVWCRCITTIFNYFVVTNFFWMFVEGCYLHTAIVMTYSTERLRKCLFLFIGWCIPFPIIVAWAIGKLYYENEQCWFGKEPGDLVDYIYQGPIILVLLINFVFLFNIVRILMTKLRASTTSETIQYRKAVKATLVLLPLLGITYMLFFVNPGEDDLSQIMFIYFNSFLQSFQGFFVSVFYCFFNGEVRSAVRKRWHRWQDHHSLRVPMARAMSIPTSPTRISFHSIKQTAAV
Procedure, shortened: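 TeloHEAC cells stably expressing human CRF2a (10000 cells/well) were treated with 16-point 1:2 compound dilutions in HBSS/20 mM HEPES with IBMX for 30 min at 37° C. cAMP was read by HTRF (665/620 nm ratio). EC50 was the concentration giving 50% activation, with 100 nM urocortin 2 set as 100%.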

[2] = target: T2, CFR1R receptor (Homo sapiens, UniProt P34998); test: Activity at anti-target CFR1R receptor, cAMP assay in CRF1R-overexpression CHO-K1 cells; assay type: cell-based; settings: 100% = Sauvagine at 100 nM; for EC50: cAMP
T2 construct: host or cells: CHO-K1 (clone 2)
T2 sequence (P34998 24-415): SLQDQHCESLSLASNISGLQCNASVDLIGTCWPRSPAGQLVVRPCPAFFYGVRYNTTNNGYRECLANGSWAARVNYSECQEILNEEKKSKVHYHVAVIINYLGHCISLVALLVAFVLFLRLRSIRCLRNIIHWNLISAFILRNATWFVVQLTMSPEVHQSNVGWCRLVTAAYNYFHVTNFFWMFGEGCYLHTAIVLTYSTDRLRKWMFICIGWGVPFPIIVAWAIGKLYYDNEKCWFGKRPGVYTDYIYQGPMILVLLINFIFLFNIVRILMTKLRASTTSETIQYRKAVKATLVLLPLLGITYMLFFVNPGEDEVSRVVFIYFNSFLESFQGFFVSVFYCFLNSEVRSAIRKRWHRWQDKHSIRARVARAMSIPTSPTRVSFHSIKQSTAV
Procedure, shortened: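 Uses frozen stocks of CHO-K1 clone 2 cells overexpressing human CRF1R, plated at 4000 cells/well final, with cAMP measured by the same protocol as the TeloHAEC line. Full-activation control: 100 nM Sauvagine.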

Structure (SMILES)	EC50 [1] [nM]	Emax (% I) [2] [% I]	EC50 [2] [nM]
CC[C@H](C)[C@H](NC(C)=O)C(=O)N[C@H](C(=O)N[C@@H](CC(C)C)C(=O)N[C@@H](CO)C(=O)N[C@@H](CC(C)C)C(=O)N[C@@H](CC(=O)O)C(=O)N[C@@H](C(=O)N1CCC[C@H]1C(=O)N[C@H](C(=O)N[C@@H](CCCCN)C(=O)N[C@@H](CC(C)C)C(=O)N[C@@H](CCCCNC(=O)CC[C@H](NC(=O)CC[C@H](NC(=O)CCCCCCCCCCCCCCC(=O)O)C(=O)O)C(=O)O)C(=O)N[C@@H](CCCCN)C(=O)N[C@H](C(=O)N[C@@H](CC(C)C)C(=O)N[C@@H](CC(C)C)C(=O)N[C@@H](CCC(=O)O)C(=O)N[C@@H](CCC(N)=O)C(=O)N[C@@H](CCC(=O)O)C(=O)N[C@@H](CCCCN)C(=O)N[C@@H](CCC(N)=O)C(=O)N[C@@H](CCCCN)C(=O)N[C@@H](CCCCN)C(=O)N[C@@H](CCC(N)=O)C(=O)N[C@@H](CCCNC(=N)N)C(=O)N[C@@H](CCC(=O)O)C(=O)N[C@@H](CCC(N)=O)C(=O)N[C@@H](C)C(=O)N[C@@H](CCC(=O)O)C(=O)N[C@H](C(=O)N[C@@H](CC(N)=O)C(=O)NC(C)(C)C(=O)N[C@@H](CCC(N)=O)C(=O)N[C@H](C(=O)N[C@@H](CC(C)C)C(=O)N[C@@H](C)C(=O)N[C@@H](CCC(N)=O)C(=O)N[C@H](C(N)=O)C(C)C)[C@@H](C)CC)[C@@H](C)O)[C@@H](C)CC)[C@@H](C)CC)C(C)C)C(C)C [compound 41] (Ac-IVLSLD[dV]PIKLK([γGlu-γGlu-C16 diacid])KILLEQEKQKKQREQAETN[Aib]QILAQV-NH2)	1.85	7	> 250
CC[C@H](C)[C@H](NC(C)=O)C(=O)N[C@H](C(=O)N[C@@H](CC(C)C)C(=O)N[C@@H](CO)C(=O)N[C@@H](CC(C)C)C(=O)N[C@@H](CC(=O)O)C(=O)N[C@@H](C(=O)N1CCC[C@H]1C(=O)N[C@H](C(=O)N[C@@H](CCCCN)C(=O)N[C@@H](CC(C)C)C(=O)N[C@@H](CCCCNC(=O)CC[C@H](NC(=O)CCCCCCCCCCCCCCC(=O)O)C(=O)O)C(=O)N[C@@H](CCCCN)C(=O)N[C@H](C(=O)N[C@@H](CC(C)C)C(=O)N[C@@H](CC(C)C)C(=O)N[C@@H](CCC(=O)O)C(=O)N[C@@H](CCC(N)=O)C(=O)N[C@@H](CCC(=O)O)C(=O)N[C@@H](CCCCN)C(=O)N[C@@H](CCC(N)=O)C(=O)N[C@@H](CCCCN)C(=O)N[C@@H](CCCCN)C(=O)N[C@@H](CCC(N)=O)C(=O)N[C@@H](CCCNC(=N)N)C(=O)N[C@@H](CCC(=O)O)C(=O)N[C@@H](CCC(N)=O)C(=O)N[C@@H](C)C(=O)N[C@@H](CCC(=O)O)C(=O)N[C@H](C(=O)N[C@@H](CC(N)=O)C(=O)N[C@H](C(=O)N[C@@H](CCC(N)=O)C(=O)N[C@H](C(=O)N[C@@H](CC(C)C)C(=O)N[C@@H](C)C(=O)N[C@@H](CCC(N)=O)C(=O)N[C@H](C(N)=O)C(C)C)[C@@H](C)CC)C(C)C)[C@@H](C)O)[C@@H](C)CC)[C@@H](C)CC)C(C)C)C(C)C [compound 48] (Ac-IVLSLD[dV]PIKLK([γGlu-C16 diacid])KILLEQEKQKKQREQAETNVQILAQV-NH2)	1.35	4	> 250
CC[C@H](C)[C@H](NC(C)=O)C(=O)N[C@H](C(=O)N[C@@H](CC(C)C)C(=O)N[C@@H](CO)C(=O)N[C@@H](CC(C)C)C(=O)N[C@@H](CC(=O)O)C(=O)N[C@@H](C(=O)N1CCC[C@H]1C(=O)N[C@H](C(=O)NCC(=O)N[C@@H](CC(C)C)C(=O)N[C@@H](CCCCNC(=O)CC[C@H](NC(=O)CCCCCCCCCCCCCCCCCCC(=O)O)C(=O)O)C(=O)N[C@@H](CCCCN)C(=O)N[C@H](C(=O)N[C@@H](CC(C)C)C(=O)N[C@@H](CC(C)C)C(=O)N[C@@H](CCC(=O)O)C(=O)N[C@@H](CCC(N)=O)C(=O)N[C@@H](CCC(=O)O)C(=O)N[C@@H](CCCCN)C(=O)N[C@@H](CCC(N)=O)C(=O)N[C@@H](CCCCN)C(=O)N[C@@H](CCCCN)C(=O)N[C@@H](CCC(N)=O)C(=O)N[C@@H](CCCNC(=N)N)C(=O)N[C@@H](CCC(=O)O)C(=O)N[C@@H](CCC(N)=O)C(=O)N[C@@H](C)C(=O)N[C@@H](CCC(=O)O)C(=O)N[C@H](C(=O)N[C@@H](CC(N)=O)C(=O)NC(C)(C)C(=O)N[C@@H](CCC(N)=O)C(=O)N[C@H](C(=O)N[C@@H](CC(C)C)C(=O)N[C@@H](C)C(=O)N[C@@H](CCC(N)=O)C(=O)N[C@H](C(N)=O)C(C)C)[C@@H](C)CC)[C@@H](C)O)[C@@H](C)CC)[C@@H](C)CC)C(C)C)C(C)C [compound 226] (Ac-IVLSLD[dV]PIGLK([γGlu-C20 diacid])KILLEQEKQKKQREQAETN[Aib]QILAQV-NH2)	0.18	82	42.2
CCCCCC(=O)N[C@H](C(=O)N[C@@H](CC(C)C)C(=O)N[C@@H](CO)C(=O)N[C@@H](CC(C)C)C(=O)N[C@@H](CC(=O)O)C(=O)N[C@@H](C(=O)N1CCC[C@H]1C(=O)N[C@H](C(=O)N[C@@H](CCCCN)C(=O)N[C@@H](CC(C)C)C(=O)N[C@@H](CCCCNC(=O)CC[C@H](NC(=O)CCCCCCCCCCCCCCC(=O)O)C(=O)O)C(=O)N[C@@H](CCCCN)C(=O)N[C@H](C(=O)N[C@@H](CC(C)C)C(=O)N[C@@H](CC(C)C)C(=O)N[C@@H](CCC(=O)O)C(=O)N[C@@H](CCC(N)=O)C(=O)N[C@@H](CCC(=O)O)C(=O)N[C@@H](CCCCN)C(=O)N[C@@H](CCC(N)=O)C(=O)N[C@@H](CCCCN)C(=O)N[C@@H](CCCCN)C(=O)N[C@@H](CCC(N)=O)C(=O)N[C@@H](CCCNC(=N)N)C(=O)N[C@@H](CCC(=O)O)C(=O)N[C@@H](CCC(N)=O)C(=O)N[C@@H](C)C(=O)N[C@@H](CCC(=O)O)C(=O)N[C@H](C(=O)N[C@@H](CC(N)=O)C(=O)NC1(C(=O)N[C@@H](CCC(N)=O)C(=O)N[C@H](C(=O)N[C@@H](CC(C)C)C(=O)N[C@@H](C)C(=O)N[C@@H](CCC(N)=O)C(=O)N[C@H](C(N)=O)C(C)C)[C@@H](C)CC)CCNCC1)[C@@H](C)O)[C@@H](C)CC)[C@@H](C)CC)C(C)C)C(C)C [compound 157] (Hexanoyl-VLSLD[dV]PIKLK([γGlu-C16 diacid])KILLEQEKQKKQREQAETN[Api]QILAQV-NH2)	0.32	30	> 250
CC[C@H](NC(=O)[C@H](CC(N)=O)NC(=O)[C@@H](NC(=O)[C@H](CCC(=O)O)NC(=O)[C@H](C)NC(=O)[C@H](CCC(N)=O)NC(=O)[C@H](CCC(=O)O)NC(=O)[C@H](CCCNC(=N)N)NC(=O)[C@H](CCC(N)=O)NC(=O)[C@H](CCCCN)NC(=O)[C@H](CCCCN)NC(=O)[C@H](CCC(N)=O)NC(=O)[C@H](CCCCN)NC(=O)[C@H](CCC(=O)O)NC(=O)[C@H](CCC(N)=O)NC(=O)[C@H](CCC(=O)O)NC(=O)[C@H](CC(C)C)NC(=O)[C@H](CC(C)C)NC(=O)[C@@H](NC(=O)[C@H](CCCCN)NC(=O)[C@H](CCCCNC(=O)CC[C@H](NC(=O)CCCCCCCCCCCCCCC(=O)O)C(=O)O)NC(=O)[C@H](CC(C)C)NC(=O)[C@H](CCCCN)NC(=O)[C@@H](NC(=O)[C@@H]1CCCN1C(=O)[C@H](NC(=O)[C@H](CC(=O)O)NC(=O)[C@H](CC(C)C)NC(=O)[C@H](CO)NC(=O)[C@H](CC(C)C)NC(=O)[C@@H](NC(=O)[C@@H](NC)[C@@H](C)CC)C(C)C)C(C)C)[C@@H](C)CC)[C@@H](C)CC)[C@@H](C)O)C(=O)N[C@@H](CCC(N)=O)C(=O)N[C@H](C(=O)N[C@@H](CC(C)C)C(=O)N[C@@H](C)C(=O)N[C@@H](CCC(N)=O)C(=O)N[C@H](C(N)=O)C(C)C)[C@@H](C)CC [compound 69] (H-[NMeI]VLSLD[dV]PIKLK([γGlu-C16 diacid])KILLEQEKQKKQREQAETN[Abu]QILAQV-NH2)	0.09	3	> 250
